Measured values from patent US8921576B2, “Spiroindoline compound, and medicinal agent comprising same” (Kowa Company, Ltd., priority 2011, dated 2014).

What follows are compounds tested against T1, GST-GK derived from human liver GK (Homo sapiens, UniProt P35557) (assay: In vitro GK activity measurement test (G6PDH-coupled, OD340)). Details: test compound 1 μmol/L; glucose 2.5 mmol/L; 25° C.; OD340 slope with compound / without compound; read-out: GK activation rate (%).
T1 construct: made in house; host or cells: Escherichia coli DH5α
T1 sequence (P35557 1-466 isoform P35557-2): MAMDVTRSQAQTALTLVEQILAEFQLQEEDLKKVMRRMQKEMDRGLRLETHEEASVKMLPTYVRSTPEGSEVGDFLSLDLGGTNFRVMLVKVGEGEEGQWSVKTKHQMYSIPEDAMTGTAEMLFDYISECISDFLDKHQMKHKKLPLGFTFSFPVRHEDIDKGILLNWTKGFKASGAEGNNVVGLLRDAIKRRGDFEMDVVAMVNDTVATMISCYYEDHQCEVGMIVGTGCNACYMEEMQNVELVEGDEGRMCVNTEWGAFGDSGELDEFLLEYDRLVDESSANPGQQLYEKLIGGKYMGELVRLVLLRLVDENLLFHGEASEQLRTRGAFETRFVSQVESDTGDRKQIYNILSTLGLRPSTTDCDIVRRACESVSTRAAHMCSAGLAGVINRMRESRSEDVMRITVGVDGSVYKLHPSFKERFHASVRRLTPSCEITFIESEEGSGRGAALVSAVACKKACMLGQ
Type: biochemical
Description: cDNA (GenBank Accession No. NM_033507, human glucokinase, variant 2) encoding human liver-type GK polypeptide was cloned by performing a polymerase chain reaction (hereinafter referred to as “PCR”) using a human liver cDNA library (Human liver QUICK-Clone cDNA, TAKARA BIO INC.), and the thus cloned cDNA was then introduced into an expression vector (pGEX-3X, GE Healthcare Japan) for glutathione S transferase (hereinafter referred to as GST) fusion protein expression. The resulting vector was introduced into Escherichia coli (Competent high DH5α, Toyobo Co., Ltd.), and the transformed Escherichia coli was then cultured at 37° C. Thereafter, Isopropyl β-D-1-thiogalactopyranoside (final concentration: 1 mmol/L, Sigma Aldrich Japan) was added to the culture, and the obtained mixture was then cultured at 30° C. for 3 hours. Thereafter, a cell mass was recovered. The recovered cell mass was subjected to freezing-and-thawing, and the resulting cell mass was then suspended in phosphate buffer with final concentration of 1% Triton X-100, followed by disintegration with an ultrasonic disruptor. The homogenate was centrifuged at 33,200 rpm at 4° C. for 1 hour. Thereafter, the supernatant was recovered, and a GST-GK fusion protein was then purified using a glutathione column (GSTrap FF, GE Healthcare Japan). The obtained GST-GK fusion protein was divided into some portions each having a small volume, and the thus divided proteins were then preserved at −80° C.
A GK assay method was carried out at 25° C. at a final incubation volume of 100 μL in a flat-bottom 96-well assay plate. An assay buffer comprised 25 mmol/L Hepes buffer (pH 7.1), 25 mmol/L KCl, 2.5 mmol/L or 10 mmol/L D-glucose, 5 mmol/L ATP, 1 mmol/L nicotinamide adenine dinucleotide phosphate (abbreviated as NADP), 2 mmol/L MgCl2, 1 mmol/L dithiothreitol (DTT), 2 units/mL glucose-6 phosphate dehydrogenase (G6PDH), and 1 μg/mL GST-GK derived from human liver GK. ATP, G6PDH, and NADP were purchased from Roche Diagnostics. […] The thus mixed solution was preincubated in an incubator in which the temperature was controlled at 25° C. for 15 minutes. Subsequently, the reaction was initiated by adding 10 μL of the GST-GK solution to the reaction mixture, resulting in a final concentration of 0.1 μg/mL. After initiation of the reaction, an increase in the optical concentration at 340 nm (OD340) was monitored with a microplate spectrophotometer (Varsamax, Molecular Devices Japan K.K.) every 10 seconds over an incubation period of 10 minutes. An inclination of the OD340 increase was defined as raw data. The GK activating rate was indicated as a numerical value obtained from the expression: (Inclination of OD340 increase by addition of the test compound)/(inclination of OD340 increase without addition of the test compound). The results of the GK activating rate obtained at a test compound concentration of 1 μmol/L under the condition of a glucose concentration of 2.5 mmol/L are shown in the following table.

activity at 1 µM [%] | Compound
459 | O=C(NCCCCO)N1CCC2(C1)CN(C(=O)Nc1ncc(Cl)s1)c1ccc(Cl)cc12 (centres unmarked) [Example 470, 5-chloro-N1-(5-chlorothiazol-2-yl)-N1′-(4-hydroxybutyl)spiro[indoline-3,3′-pyrrolidine]-1,1′-dicarboxamide]
462 | CONC(=O)CCCSc1cnc(NC(=O)N2CC3(CCN(C(=O)OC)C3)c3cc(Cl)ccc32)s1 (centres unmarked) [Example 168, methyl 5-chloro-1-((5-((4-(methoxyamino)-4-oxobutyl)thio)thiazol-2-yl)carbamoyl)spiro[indoline-3,3′-pyrrolidine]-1′-carboxylate]
506 | COC(=O)N1CCC2(C1)CN(C(=O)Nc1ncc(SCCCC(=O)N3CC(O)C3)s1)c1ccc(Cl)cc12 (centres unmarked) [Example 170, methyl 5-chloro-1-((5-((4-(3-hydroxyazetidin-1-yl)-4-oxobutyl)thio)thiazol-2-yl)carbamoyl)spiro[indoline-3,3′-pyrrolidine]-1′-carboxylate]
486 | NCC(=O)N1CC[C@@]2(C1)CN(C(=O)Nc1ncc(Cl)s1)c1ccc(Cl)cc12 [Example 353, (R)-1′-(2-aminoacetyl)-5-chloro-N-(5-chlorothiazol-2-yl)spiro[indoline-3,3′-pyrrolidine]-1-carboxamide]
432 | CC(=O)N1CCC2(C1)CN(C(=O)Nc1ncc(Cl)s1)c1ccc(C(F)(F)F)cc12 (centres unmarked) [Example 431, 1′-acetyl-N-(5-chlorothiazol-2-yl)-5-(trifluoromethyl)spiro[indoline-3,3′-pyrrolidine]-1-carboxamide]
554 | CCNC(=O)N1CCC2(C1)CN(C(=O)Nc1ncc(Cl)s1)c1ccc(Cl)cc12 (centres unmarked) [Example 379, 5-Chloro-N1-(5-chlorothiazol-2-yl)-N1′-ethylspiro[indoline-3,3′-pyrrolidine]-1,1′-dicarboxamide]
602 | O=C(NO)N1CCC2(C1)CN(C(=O)Nc1ncc(Cl)s1)c1ccc(Cl)cc12 (centres unmarked) [Example 481, 5-chloro-N1-(5-chlorothiazol-2-yl)-N1′-hydroxyspiro[indoline-3,3′-pyrrolidine]-1,1′-dicarboxamide]
476 | CNC(=O)N1CCC2(C1)CN(C(=O)Nc1ncc(Cl)s1)c1ccc(Cl)cc12 (centres unmarked) [Example 373, 5-chloro-N1-(5-chlorothiazol-2-yl)-N1′-methylspiro[indoline-3,3′-pyrrolidine]-1,1′-dicarboxamide]
583 | COC(=O)N1CCC2(C1)CN(C(=O)Nc1ncc(Oc3cccc(C(N)=O)c3)s1)c1ccc(Cl)cc12 (centres unmarked) [Example 186, methyl 1-((5-(3-carbamoylphenoxy)thiazol-2-yl)carbamoyl)-5-chlorospiro[indoline-3,3′-pyrrolidine]-1′-carboxylate]
567 | CNC(=O)CCCSc1cnc(NC(=O)N2CC3(CCN(C(=O)OC)C3)c3cc(Cl)ccc32)s1 (centres unmarked) [Example 164, methyl 5-chloro-1-((5-((4-(methylamino)-4-oxobutyl)thio)thiazol-2-yl)carbamoyl)spiro[indoline-3,3′-pyrrolidine]-1′-carboxylate]
445 | CC(=O)N1CC(CNC(=O)N2CCC3(C2)CN(C(=O)Nc2ncc(Cl)s2)c2ccc(Cl)cc23)C1 (centres unmarked) [Example 476, N1′-((1-acetylazetidin-3-yl)methyl)-5-chloro-N1-(5-chlorothiazol-2-yl)spiro[indoline-3,3′-pyrrolidine]-1,1′-dicarboxamide]
429 | NCC(=O)N1CCC2(C1)CN(C(=O)Nc1ncc(Cl)s1)c1ccc(Br)cc12 (centres unmarked) [Example 20, 1′-(2-aminoacetyl)-5-bromo-N-(5-chlorothiazol-2-yl)spiro[indoline-3,3′-pyrrolidine]-1-carboxamide]
574 | COC(=O)N1CCC2(C1)CN(C(=O)Nc1ncc(SC(C)CO)s1)c1ccc(Cl)cc12 (centres unmarked) [Example 141, methyl 5-chloro-1-((5-((1-hydroxypropan-2-yl)thio)thiazol-2-yl)carbamoyl)spiro[indoline-3,3′-pyrrolidine]-1′-carboxylate]
785 | COC(=O)N1CC[C@@]2(C1)CN(C(=O)Nc1nc3ccc(OC)nc3s1)c1ccc(S(=O)(=O)N(CCO)Cc3ccccc3)cc12 [Example 345, (S)-methyl 5-(N-benzyl-N-(2-hydroxyethyl)sulfamoyl)-1-((5-methoxythiazolo[5,4-b]pyridin-2-yl)carbamoyl)spiro[indoline-3,3′-pyrrolidine]-1′-carboxylate]
716 | CC(=O)N1CCC2(C1)CN(C(=O)Nc1ncc(Cl)s1)c1ccc(Br)cc12 (centres unmarked) [Example 3, 1′-acetyl-5-bromo-N-(5-chlorothiazol-2-yl)spiro[indoline-3,3′-pyrrolidine]-1-carboxamide]
843 | COc1ccc2nc(NC(=O)N3CC4(CCN(C(C)=O)C4)c4cc(S(=O)(=O)N(CCO)CC5CC5)ccc43)sc2n1 (centres unmarked) [Example 302, 1′-acetyl-5-(N-(cyclopropylmethyl)-N-(2-hydroxyethyl)sulfamoyl)-N-(5-methoxythiazolo[5,4-b]pyridin-2-yl)spiro[indoline-3,3′-pyrrolidine]-1-carboxamide]
645 | CNC(=O)N1CC[C@@]2(C1)CN(C(=O)Nc1ncc(OC)s1)c1ccc(C(F)(F)F)cc12 [Example 489, (R)—N1-(5-Methoxythiazol-2-yl)-N1′-methyl-5-(trifluoromethyl)spiro[indoline-3,3′-pyrrolidine]-1,1′-dicarboxamide]
705 | CCOC(=O)CSc1cnc(NC(=O)N2C[C@]3(CCN(C(=O)OC)C3)c3cc(Br)ccc32)s1 [Example 334, (S)-methyl 5-bromo-1-((5-((2-ethoxy-2-oxoethyl)thio)thiazol-2-yl)carbamoyl)spiro[indoline-3,3′-pyrrolidine]-1′-carboxylate]
405 | CCOC(=O)CCCNC(=O)N1CCC2(C1)CN(C(=O)Nc1ncc(Cl)s1)c1ccc(Cl)cc12 (centres unmarked) [Example 468, Ethyl 4-(5-chloro-1-((5-chlorothiazol-2-yl)carbamoyl)spiro[indoline-3,3′-pyrrolidin]-1′-ylcarboxamido)butanoate]
438 | CNC(=O)N1CCC2(C1)CN(C(=O)Nc1ncc(Cl)s1)c1ccc(CCCC(=O)N3CCC3)cc12 (centres unmarked) [Example 424, 5-(4-(Azetidin-1-yl)-4-oxobutyl)-N1-(5-chlorothiazol-2-yl)-N1′-methylspiro[indoline-3,3′-pyrrolidine]-1,1′-dicarboxamide]
692 | COc1ccc2nc(NC(=O)N3CC4(CCN(C(C)=O)C4)c4cc(S(=O)(=O)NCc5cccs5)ccc43)sc2n1 (centres unmarked) [Example 273, 1′-Acetyl-N-(5-methoxythiazolo[5,4-b]pyridin-2-yl)-5-(N-(thiophen-2-ylmethyl)sulfamoyl)spiro[indoline-3,3′-pyrrolidine]-1-carboxamide]
473 | COC(=O)N1CCC2(C1)CN(C(=O)Nc1ncc(SCCC(=O)N3CCOCC3)s1)c1ccc(Cl)cc12 (centres unmarked) [Example 154, methyl 5-chloro-1-((5-((3-morpholino-3-oxopropyl)thio)thiazol-2-yl)carbamoyl)spiro[indoline-3,3′-pyrrolidine]-1′-carboxylate]
647 | COCCN(Cc1ccccc1)S(=O)(=O)c1ccc2c(c1)[C@@]1(CCN(C(=O)OC)C1)CN2C(=O)Nc1nc2ccc(OC)nc2s1 [Example 344, (S)-methyl 5-(N-benzyl-N-(2-methoxyethyl)sulfamoyl)-1-((5-methoxythiazolo[5,4-b]pyridin-2-yl)carbamoyl)spiro[indoline-3,3′-pyrrolidine]-1′-carboxylate]
